Reference: US12673954B2 (BRISTOL-MYERS SQUIBB COMPANY, priority 2021, dated 2026)
Where two headings read alike, the source gives them in different places.

Tests used:
[1] = system: NF-κB pathway, THP1-Dual™ cells; experiment: STING reporter assay in THP1-Dual cells, NF-κB pathway (SEAP, QUANTI-Blue); format: cell-based, human; conditions: THP1-Dual cells, 10% human plasma, 20 hours, SEAP, 100% activation = 100 μM cGAMP, read-out: NFkB (EC50 μM)
In short: (§1)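 THP-1-derived dual-reporter cells treated with serially diluted compounds (final top concentration 100 μM) for 20 h at 37° C. NF-κB read as SEAP via QUANTI-Blue at OD620; IRF read as Lucia luminescence via QUANTI-Luc after 5 min. 100% activation set by 100 μM cGAMP, baseline by DMSO.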

[2] = system: IRF pathway, THP1-Dual™ cells; experiment: STING reporter assay in THP1-Dual cells, IRF pathway (Lucia luciferase, QUANTI-Luc); format: cell-based, human; conditions: THP1-Dual cells, 10% human plasma, 20 hours, Lucia luciferase, 100% activation = 100 μM cGAMP, read-out: IRF (EC50 μM)
In short: as §1

Row | Compound | EC50 ([1]; Homo sapiens, THP1-Dual, 20 h) [µM] | EC50 ([2]; Homo sapiens, THP1-Dual, 20 h) [µM] | EC50 [1] [µM] | EC50 [2] [µM]
1 | O=C(OCCCN1CCOCC1)c1cc(Cl)cc2cc(CNC(=O)c3cnn4cccnc34)oc12 [EXAMPLE 256, 3-Morpholinopropyl 5-chloro-2-((pyrazolo[1,5-a]pyrimidine-3-carboxamido)methyl)benzofuran-7-carboxylate] | 4.8 | 6.7 | – | –
2 | COC(=O)c1cccc2cc(CNC(=O)c3cncc4cccnc34)oc12 [EXAMPLE 14, Methyl 2-((1,6-naphthyridine-8-carboxamido)methyl)benzofuran-7-carboxylate] | 6 | 3.8 | – | –
3 | C[C@@H](OC(=O)Cc1cc(F)cc2cc(CNC(=O)c3cnn4cccnc34)oc12)C(F)(F)F [EXAMPLE 367, (R)-1,1,1-Trifluoropropan-2-yl 2-(5-fluoro-2-((pyrazolo[1,5-a]pyrimidine-3-carboxamido)methyl)benzofuran-7-yl)acetate] | 9.5 | 7.5 | – | –
4 | CC(OC(=O)c1cc(F)cc2cc(CNC(=O)c3cnc4cccnn34)oc12)C(F)(F)F (single isomer, unassigned) [EXAMPLE 316, 1,1,1-Trifluoropropan-2-yl 5-fluoro-2-((imidazo[1,2-b]pyridazine-3-carboxamido)methyl)benzofuran-7-carboxylate] | – | – | 5.9 | 4.8
5 | O=C(NCC(F)(F)F)c1cc(Cl)cc2cc(CNC(=O)c3cnn4cccnc34)oc12 [EXAMPLE 403, N-((5-Chloro-7-((2,2,2-trifluoroethyl)carbamoyl)benzofuran-2-yl)methyl)pyrazolo[1,5-a]pyrimidine-3-carboxamide] | 97 | > 100 | – | –
6 | COc1ccn2ncc(C(=O)NCc3cc4cc(Cl)cc(C(=O)O)c4o3)c2n1 [EXAMPLE 139, 5-Chloro-2-((5-methoxypyrazolo[1,5-a]pyrimidine-3-carboxamido)methyl)benzofuran-7-carboxylic acid] | > 100 | 90 | – | –
7 | COC(=O)c1cc(O)cc2cc(CN3Cc4ccncc4C3=O)oc12 [EXAMPLE 104, Methyl 5-hydroxy-2-((3-oxo-1,3-dihydro-2H-pyrrolo[3,4-c]pyridin-2-yl)methyl)benzofuran-7-carboxylate] | 37 | 63 | – | –
8 | COC(=O)c1ccc(O)c2cc(CNC(=O)c3cnn4cccnc34)oc12 [EXAMPLE 34, Methyl 4-hydroxy-2-((pyrazolo[1,5-a]pyrimidine-3-carboxamido)methyl)benzofuran-7-carboxylate] | > 100 | 79 | – | –

Continued by falling EC50 ([1]; Homo sapiens, THP1-Dual, 20 h), values first:

Row | EC50 ([1]; Homo sapiens, THP1-Dual, 20 h) [µM] | EC50 ([2]; Homo sapiens, THP1-Dual, 20 h) [µM] | EC50 [1] [µM] | EC50 [2] [µM] | Compound
9 | 4.2 | 4.2 | – | – | O=C(NCc1cc2cc(F)cc(C(=O)OCC(F)(F)F)c2o1)c1cnccn1 [EXAMPLE 229, 2,2,2-Trifluoroethyl 5-fluoro-2-((pyrazine-2-carboxamido)methyl)benzofuran-7-carboxylate]
10 | 3.4 | 3 | – | – | Cc1cc(C(=O)O[C@H](C)C(F)(F)F)c2oc(C(C)NC(=O)c3cnn4cccnc34)cc2c1 (stereo partly drawn) [EXAMPLE 276, (R)-1,1,1-Trifluoropropan-2-yl 5-methyl-2-(1-(pyrazolo[1,5-a]pyrimidine-3-carboxamido)ethyl)benzofuran-7-carboxylate]
11 | 0.82 | 0.84 | – | – | C[C@@H](OC(=O)c1cc(Cl)cc2cc(CNC(=O)c3cncc4[nH]cnc34)oc12)C(F)(F)F [EXAMPLE 265, (R)-1,1,1-Trifluoropropan-2-yl 2-((3H-imidazo[4,5-c]pyridine-7-carboxamido)methyl)-5-chlorobenzofuran-7-carboxylate]
12 | 0.51 | 0.32 | – | – | COC(=O)c1cc(Cl)cc2c(Cl)c(CNC(=O)c3cncc4cccnc34)oc12 [EXAMPLE 113, methyl 2-((1,6-naphthyridine-8-carboxamido)methyl)-3,5-dichlorobenzofuran-7-carboxylate]
13 | 0.29 | 0.53 | – | – | CCSC(=O)c1cc(C)cc2cc(CNC(=O)c3cnn4cccnc34)oc12 [EXAMPLE 390, S-Ethyl 5-methyl-2-((pyrazolo[1,5-a]pyrimidine-3-carboxamido)methyl)benzofuran-7-carbothioate]
